Measurements from patent publication US20180071317A1, “USE OF AGENTS THAT ALTER THE PERITUMORAL ENVIRONMENT FOR THE TREATMENT OF CANCER” (SERVICIO ANDALUZ DE SALUD, priority 2011, published 2018).

What was measured:
[1] = system: polymorphonuclear cells; experiment: Marker expression (immunohistochemistry) in polymorphonuclear blood cells with SP alone or with NK1 antagonists; type: cell-based, human; settings: SP 1 μM; 48 h
From the text: Briefly, heparinized blood from healthy donors was centrifuged so as to separate the various components thereof. Red blood cells remained at the bottom of the tube. Above them was a small white layer composed of the white blood cells and above, on top of the tube, the blood plasma. The layer of white cells was distributed in a culture plate of 24 wells by adding in each the same concentration of blood plasma from the same donor, supplemented with 1% antibiotic-antimycotic (Invitrogen). In each well, approximately 1000 cells (PHF) skin from the dermis were further added, obtained as previously described in Example 2. […] After 48 hours of incubation, cells were collected and embedded in paraffin for expression analysis by immunohistochemical techniques (as described in Example 1).
The expression of TGF molecular markers (anti-TGF 2, SAB4502956) and NF-kB (anti-NF-kB, SAB4501992) using specific antibodies against them were analyzed. All antibodies used were rabbit polyclonal antibodies obtained from Sigma Aldrich and were used at a concentration of 1/1000. All experiments were carried out sixfold.

[2] = system: fibroblasts (PHF) co-cultured with tumor cells of human gastric adenocarcinoma (23132/87); experiment: Marker expression (IHC) in PHF co-cultured with 23132/87 tumor cells; type: cell-based; settings: co-culture with 23132/87; SP 1 μM; 48 h;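 note: cultures grown in fresh plasma from a healthy human donor, values give the percentage of PHF fibroblasts positive for the marker, each experiment run in six replicates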
Method: All cultures were maintained 48 hours, following which the same cells were included in paraffin blocks for subsequent analysis of the expression of different markers by immunohistochemistry (see Example 1). The primary antibodies used to perform immunohistochemical assays and their concentration are detailed in Example 2. All experiments were carried out sixfold. Analyzed markers in fibroblast cells (stromal cells) were: TGF-α, TGF-β1, TGF-β2, TGF-β3, SPARC, MMP-3, MMP-7, MMP-9, MMP-11, MMP-13 and MMP-14.

[3] = system: fibroblasts (PHF) co-cultured with human choriocarcinoma tumor cells (AC-1M32); experiment: Marker expression (IHC) in PHF co-cultured with AC-1M32 tumor cells; type: cell-based; settings: co-culture with AC-1M32; SP 1 μM; 48 h;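 note: Read-out is the percentage of PHF fibroblasts positive for each marker, with cells grown in fresh healthy-donor blood plasma, six replicates, reference being fibroblasts cultured alone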
Method: (§1) All cultures were maintained 48 hours, following which the same cells were included in paraffin blocks for subsequent analysis of the expression of different markers by immunohistochemistry (see Example 1). […] All experiments were carried out sixfold. Analyzed markers in fibroblast cells (stromal cells) were: TGF-α, TGF-β1, TGF-β2, TGF-β3, SPARC, MMP-3, MMP-7, MMP-9, MMP-11, MMP-13 and MMP-14.

[4] = system: fibroblasts (PHF) co-cultivated with tumor cell carcinoma of urinary bladder (5637); experiment: Marker expression (IHC) in PHF co-cultured with 5637 tumor cells; type: cell-based, human; settings: co-culture with 5637; SP 1 μM; 48 h
Method: as §1

[5] = system: fibroblasts (PHF) co-cultured with human neuroblastoma tumor cells (KELLY); experiment: Marker expression (IHC) in PHF co-cultured with KELLY tumor cells; type: cell-based; settings: PHF co-cultured with KELLY + SP;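 note: Co-cultures grown on healthy-donor human blood plasma, run in six replicates, value is percentage of fibroblasts positive for each marker, compared with fibroblasts cultured alone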
Method: as §1

[6] = system: co-cultures of tumor cells-endothelial cells (C-12210); experiment: Inhibition/survival in co-cultures of primary human tumor cells and endothelial cells; type: cell-based; settings: survival in reference to control, SP 1 μM
Method: To check that the interaction of primary tumor cells extracted directly from human with human vascular endothelial cells, promotes the survival of both cell types, co-cultures were performed microvascular endothelial cells from juvenile foreskins (PromoCell GmbH, Sickingenstraβe 63/65, D-69126 Heidelberg, Germany; reference C-12210) with tumor cells obtained directly from primary human tumors.
A total of 6 wells containing tumor cells were used as control for survival. Another 6 wells containing tumor cells were cultured with addition of endothelial cells.
Subsequently, cells were embedded in paraffin for analysis by immunohistochemistry. In order to identify the different cell types and quantity of them [They were labelled with primary antibodies specific for human endothelial cells (anti-CD31), carcinoma cells (Anti-Cytokeratins Spread Spectrum), glioma (Anti-glial fibrillary acidic protein), fibrosarcoma and malignant fibrous histiocytoma (Anti-Smooth Muscle Actin), Ewing sarcoma (Anti-CD99), Melanoma (Anti-HMB45), leukemias and lymphomas (Anti-Common Antigen Leucitario) and myeloma (anti CD 138). All antibodies are distributed by Dako and were used at the same concentration which is supplied (supplied pre-diluted—“ready to use”).

[7] = Carcinoma of lung, (Small cell carcinoma in Table 36)
[8] = Carcinoma of lung, Non Small Cell Carcinoma in Table 36
[9] = Carcinoma of thyroid, (Follicular Carcinoma in Table 36)
[10] = Carcinoma of thyroid, (Papillary Carcinoma in Table 36)

## CSCC[C@H](NC(=O)[C@H](CC(C)C)NC(=O)CNC(=O)[C@H](Cc1ccccc1)NC(=O)[C@H](Cc1ccccc1)NC(=O)[C@H](CCC(N)=O)NC(=O)[C@H](CCC(N)=O)NC(=O)[C@@H]1CCCN1C(=O)[C@H](CCCCN)NC(=O)[C@@H]1CCCN1C(=O)[C@@H](N)CCCNC(=N)N)C(N)=O [SP]
[1]
  polymorphonuclear cells expressing NF-kB: 17.5 ± 1.6%
  polymorphonuclear cells expressing TGF-β: 36.8 ± 2.1%
[2]
  PHF cells expressing MMP-3: 43.4 ± 1.7%
  PHF cells expressing MMP-7: 56.1 ± 2.8%
  PHF cells expressing MMP-9: 52.3 ± 1.4%
  PHF cells expressing MMP-11: 27.4 ± 2.8%
  PHF cells expressing MMP-13: 45 ± 3.5%
  PHF cells expressing MMP-14: 49.2 ± 4.5%
  PHF cells expressing SPARC: 47 ± 1.2%
  PHF cells expressing TGF-α: 32.4 ± 1.1%
  PHF cells expressing TGF-β1: 33.5 ± 1.1%
  PHF cells expressing TGF-β2: 40.5 ± 1.1%
  PHF cells expressing TGF-β3: 41 ± 1.56%
[3]
  PHF cells expressing MMP-3: 45.4 ± 2.7%
  PHF cells expressing MMP-7: 57.1 ± 3.8%
  PHF cells expressing MMP-9: 56.3 ± 2.4%
  PHF cells expressing MMP-11: 28.4 ± 2.8%
  PHF cells expressing MMP-13: 47 ± 3.7%
  PHF cells expressing MMP-14: 51.2 ± 4.5%
  PHF cells expressing SPARC: 46 ± 3.1%
  PHF cells expressing TGF-α: 41.4 ± 1.1%
  PHF cells expressing TGF-β1: 36.5 ± 2.1%
  PHF cells expressing TGF-β2: 53.5 ± 3.1%
  PHF cells expressing TGF-β3: 46 ± 3%
[4]
  PHF cells expressing MMP-3: 44.5 ± 2.7%
  PHF cells expressing MMP-7: 55.4 ± 3.8%
  PHF cells expressing MMP-9: 53.3 ± 4.4%
  PHF cells expressing MMP-11: 26.5 ± 1.8%
  PHF cells expressing MMP-13: 44.5 ± 2.5%
  PHF cells expressing MMP-14: 47.1 ± 3.5%
  PHF cells expressing SPARC: 47.4 ± 2.2%
  PHF cells expressing TGF-α: 42.4 ± 1.1%
  PHF cells expressing TGF-β1: 43.6 ± 1.1%
  PHF cells expressing TGF-β2: 44.3 ± 1.1%
  PHF cells expressing TGF-β3: 42.3 ± 1.2%
[5]
  cells expressing MMP-3: 45.4 ± 4.7%
  cells expressing MMP-7: 57.4 ± 3.8%
  cells expressing MMP-9: 51.2 ± 2.4%
  cells expressing MMP-11: 29.4 ± 4.8%
  cells expressing MMP-13: 44.3 ± 4.5%
  cells expressing MMP-14: 51.2 ± 4.2%
  cells expressing SPARC: 46.5 ± 4.2%
  cells expressing TGF-α: 42.4 ± 3.1%
  cells expressing TGF-β1: 36.5 ± 2.1%
  cells expressing TGF-β2: 42.2 ± 2.2%
  cells expressing TGF-β3: 43.4 ± 2.3%
[6]; Carcinoma of Colon
  Endothelial cells co-cultured with tumor cells + SP: 243 ± 4%
  Tumor cells co-cultured with endothelial cells + SP: 253 ± 4%
[6]; Carcinoma of Pancreas
  Endothelial cells co-cultured with tumor cells + SP: 287 ± 3%
  Tumor cells co-cultured with endothelial cells + SP: 252 ± 4%
[6]; Carcinoma of breast
  Endothelial cells co-cultured with tumor cells + SP: 281 ± 4%
  Tumor cells co-cultured with endothelial cells + SP: 253 ± 5%
[6]; Carcinoma of cervix
  Endothelial cells co-cultured with tumor cells + SP: 292 ± 4%
  Tumor cells co-cultured with endothelial cells + SP: 260 ± 4%
[6]; Carcinoma of endometrial
  Endothelial cells co-cultured with tumor cells + SP: 283 ± 5%
  Tumor cells co-cultured with endothelial cells + SP: 252 ± 3%
[6]; [7]
  Endothelial cells co-cultured with tumor cells + SP: 294 ± 2%
  Tumor cells co-cultured with endothelial cells + SP: 264 ± 3%
[6]; [8]
  Endothelial cells co-cultured with tumor cells + SP: 274 ± 5%
  Tumor cells co-cultured with endothelial cells + SP: 245 ± 6%
[6]; Carcinoma of ovarian
  Endothelial cells co-cultured with tumor cells + SP: 282 ± 4%
  Tumor cells co-cultured with endothelial cells + SP: 254 ± 4%
[6]; Carcinoma of prostate
  Endothelial cells co-cultured with tumor cells + SP: 270 ± 4%
  Tumor cells co-cultured with endothelial cells + SP: 269 ± 1%
[6]; Carcinoma of stomach
  Endothelial cells co-cultured with tumor cells + SP: 251 ± 3%
  Tumor cells co-cultured with endothelial cells + SP: 260 ± 4%
[6]; [9]
  Endothelial cells co-cultured with tumor cells + SP: 260 ± 5%
  Tumor cells co-cultured with endothelial cells + SP: 240 ± 6%
[6]; [10]
  Endothelial cells co-cultured with tumor cells + SP: 265 ± 2%
  Tumor cells co-cultured with endothelial cells + SP: 230 ± 4%
[6]; Fibrosarcoma
  Endothelial cells co-cultured with tumor cells + SP: 249 ± 5%
  Tumor cells co-cultured with endothelial cells + SP: 257 ± 3%
[6]; Glioma
  Endothelial cells co-cultured with tumor cells + SP: 238 ± 6%
  Tumor cells co-cultured with endothelial cells + SP: 247 ± 5%
[6]; Hodgkin's Lymphoma
  Endothelial cells co-cultured with tumor cells + SP: 248 ± 5%
  Tumor cells co-cultured with endothelial cells + SP: 265 ± 4%
[6]; Leukemia B
  Endothelial cells co-cultured with tumor cells + SP: 278 ± 4%
  Tumor cells co-cultured with endothelial cells + SP: 265 ± 6%
[6]; Leukemia T
  Endothelial cells co-cultured with tumor cells + SP: 276 ± 4%
  Tumor cells co-cultured with endothelial cells + SP: 256 ± 6%
[6]; Malignant fibrous histiocytoma
  Endothelial cells co-cultured with tumor cells + SP: 246 ± 4%
  Tumor cells co-cultured with endothelial cells + SP: 245 ± 3%
[6]; Melanoma
  Endothelial cells co-cultured with tumor cells + SP: 267 ± 4%
  Tumor cells co-cultured with endothelial cells + SP: 245 ± 2%
[6]; Myeloma
  Endothelial cells co-cultured with tumor cells + SP: 267 ± 2%
  Tumor cells co-cultured with endothelial cells + SP: 232 ± 3%
[6]; Neuroblastoma
  Endothelial cells co-cultured with tumor cells + SP: 258 ± 3%
  Tumor cells co-cultured with endothelial cells + SP: 256 ± 5%
[6]; Non-Hodgkin's Lymphoma B
  Endothelial cells co-cultured with tumor cells + SP: 254 ± 7%
  Tumor cells co-cultured with endothelial cells + SP: 267 ± 5%
[6]; Non-Hodgkin's Lymphoma T
  Endothelial cells co-cultured with tumor cells + SP: 256 ± 4%
  Tumor cells co-cultured with endothelial cells + SP: 276 ± 4%
[6]; Renal carcinoma
  Endothelial cells co-cultured with tumor cells + SP: 282 ± 4%
  Tumor cells co-cultured with endothelial cells + SP: 260 ± 4%
[6]; Sarcoma of Ewing
  Endothelial cells co-cultured with tumor cells + SP: 234 ± 5%
  Tumor cells co-cultured with endothelial cells + SP: 236 ± 4%
